# From patent publication US20080109040A1, “METHOD OF TREATING ARRHYTHMIAS” (priority 2002, published 2008)
# System: anesthetized dog
# Experiment: QT prolongation and arrhythmia induction in anesthetized dog with AV block and phenylephrine challenge
# Description: Dogs were pretreated with Atravet (0.07 mg/kg sc) and then 15 minutes later anesthetized with ketamine (5.3 mg/kg iv) and valium (0.25 mg/kg iv) followed by isoflurane (1-2%), intubated and subjected to mechanical ventilation. They were then subjected to AV block with radiofrequency ablation. A median sternotomy was performed and catheters were inserted into a femoral artery for blood pressure (BP) recording and into both femoral veins for infusion of test drugs. Bipolar electrodes were inserted into both ventricles for programmed stimulation determination of refractory periods (extrastimulus technique), as well as for evaluation of QT interval and QRS duration at various controlled basic cycle lengths (BCLs). TdP was induced by challenges of phenylephrine, which were given as bolus intravenous doses of 10, 20, 30, 40 and 50 μg/kg. After each dose, the ECG was monitored continuously to detect arrhythmias. […] Test drug effects were evaluated as per protocols below.
# Data are presented as the mean ±S.E.M. Statistical comparisons were made with Student's t test. A 2-tailed probability<0.05 was taken to indicate statistical significance. In data tables, * denotes P<0.05, **P<0.01.
# Group 2 (6 dogs): Five dogs received ranolazine as a 0.5 mg/kg iv load followed by a first, a second and a third continuous iv infusion of 1.0, 3.0 and 15 mg/kg/hr, respectively. One dog received ranolazine as a 1.5 mg/kg iv load followed by infusions of 15 and 30 mg/kg/hr. […] The phenylephrine challenges were then given, with all doses given at each drug infusion rate, and any arrhythmias monitor.
# [1] = ranolazine 0.5 mg/kg iv load + 1.0 mg/kg/hr, BCL 300
# [2] = ranolazine 0.5 mg/kg iv load + 1.0 mg/kg/hr, BCL 400
# [3] = ranolazine 0.5 mg/kg iv load + 1.0 mg/kg/hr, BCL 600
# [4] = ranolazine 3.0 mg/kg/hr, BCL 300
# [5] = ranolazine 3.0 mg/kg/hr, BCL 400
# [6] = ranolazine 3.0 mg/kg/hr, BCL 600
# [7] = ranolazine 3.0 mg/kg/hr, BCL 1000
# [8] = ranolazine 15 mg/kg/hr, BCL 400
# [9] = ranolazine 15 mg/kg/hr, BCL 600
# [10] = ranolazine 15 mg/kg/hr, BCL 1000
compound,measurement,setting,value
"COc1ccccc1OCC(O)CN1CCN(CC(=O)Nc2c(C)cccc2C)CC1 (racemic) [ranolazine, N-(2,6-dimethylphenyl)-4-[2-hydroxy-3-(2-methoxyphenoxy)propyl]-1-piperazineacetamide]",Induction of torsades de pointes and/or ventricular fibrillation,"dog, in vivo",unable to induce any
same,Maximum increase of QT interval,"dog, in vivo, 3 mg/kg, 30 min",about 10%
same,Arrhythmia occurrence,"dog, in vivo, 30 min","VT 13 beats,"
same,Mean ERP-LV + SE,[1],185.00 ± 8.1 ms
same,Mean ERP-RV + SE,[1],182.84 ± 6.67 ms
same,Mean ERP-LV + SE,[2],204.38 ± 11.01 ms
same,Mean ERP-RV + SE,[2],201.50 ± 6.45 ms
same,Mean ERP-LV + SE,[3],233.13 ± 12.43 ms
same,Mean ERP-RV + SE,[3],227.50 ± 8.87 ms
same,Mean ERP-LV + SE,"ranolazine 0.5 mg/kg iv load + 1.0 mg/kg/hr, BCL 1000",259.38 ± 18.18 ms
same,Outcome of the high-dose dog,"ranolazine 1.5 mg/kg iv load, 15 then 30 mg/kg/hr infusion",died of pump failure
same,Mean ERP-LV + SE,[4],189.38 ± 8.32 ms
same,Mean ERP-RV + SE,[4],181.00 ± 2.32 ms
same,Mean ERP-LV + SE,[5],211.45 ± 9.2 ms
same,Mean ERP-RV + SE,[5],199.66 ± 3.75 ms
same,Mean ERP-LV + SE,[6],238.13 ± 13.25 ms
same,Mean ERP-RV + SE,[6],224.50 ± 4.83 ms
same,Mean ERP-LV + SE,[7],265.43 ± 19.42 ms
same,Mean ERP-RV + SE,[7],249.50 ± 6.19 ms
same,Mean ERP-RV + SE,"ranolazine 15 mg/kg/hr, BCL 300",185.00 ± 5.76 ms
same,Mean ERP-LV + SE,[8],215.00 ± 10.05 ms
same,Mean ERP-RV + SE,[8],206.50 ± 5.79 ms
same,Mean ERP-LV + SE,[9],237.50 ± 14.11 ms
same,Mean ERP-RV + SE,[9],229.50 ± 6.19 ms
same,Mean ERP-LV + SE,[10],260.43 ± 19.32 ms
same,Mean ERP-RV + SE,[10],253.16 ± 7.77 ms
same,Mean increase of ERP,ranolazine infusions,≤ 10%
